Values quoted from earlier work as cited in PubChem BioAssay AID1259409 (Chemical Carcinogenesis Research Information System (CCRIS), 2018).

Test system: rodent chemically induced tumor inhibition, incidence and multiplicity
Test: CCRIS tumor inhibitor studies
Settings: Carcinogen: 4-(METHYLNITROSAMINO)-1-(3-PYRIDYL)-1-BUTANONE, 64091-91-4, Dose [Inhibitor]: 0, Promoter: NONE USED

Structure (SMILES): S=C=NCCCCCCc1ccccc1
- tumour outcome (control, treated, inhibition, significance) (1 UMOL 1/D FOR 4 D ADMINISTERED PRIOR TO CARCINOGEN TREATMENT (STUDY DURATION: 116 D), Route [Inhibitor]: GAVAGE, Species: MOUSE, Strain/Sex: STRAIN A, Target Tissue: Type of Lesion: LUNG: ADENOMA, Dose [Carcinogen]: 10 UMOL ONCE 2 HR AFTER FINAL DOSE OF INHIBITOR): 100%, 0%, 100%, p<0.05
- tumour outcome (control, treated, inhibition, significance) (5 UMOL 1/D FOR 4 D ADMINISTERED PRIOR TO CARCINOGEN TREATMENT (STUDY DURATION: 116 D), Route [Inhibitor]: GAVAGE, Species: MOUSE, Strain/Sex: STRAIN A, Target Tissue: Type of Lesion: LUNG: ADENOMA, Dose [Carcinogen]: 10 UMOL ONCE 2 HR AFTER FINAL DOSE OF INHIBITOR): 100%, 5%, 95%, p<0.05
- tumour outcome (control, treated, inhibition, significance) (0.04 UMOL ONCE 2 HR PRIOR TO CARCINOGEN DOSE (STUDY DURATION: 16 WK), Route [Inhibitor]: GAVAGE, Species: MOUSE, Strain/Sex: STRAIN-A/FEMALE, Target Tissue: Type of Lesion: LUNG: ADENOMA, Dose [Carcinogen]: 10 UMOL IN 0.1 ML SALINE ONCE): 100%, 100%, 0%, not significant
- tumour outcome (control, treated, inhibition, significance) (0.1 UMOL ONCE 2 HR PRIOR TO CARCINOGEN DOSE (STUDY DURATION: 16 WK), Route [Inhibitor]: GAVAGE, Species: MOUSE, Strain/Sex: STRAIN-A/FEMALE, Target Tissue: Type of Lesion: LUNG: ADENOMA, Dose [Carcinogen]: 10 UMOL IN 0.1 ML SALINE ONCE): 100%, 100%, 0%, not significant
- tumour outcome (control, treated, inhibition, significance) (0.2 UMOL ONCE 2 HR PRIOR TO CARCINOGEN DOSE (STUDY DURATION: 16 WK), Route [Inhibitor]: GAVAGE, Species: MOUSE, Strain/Sex: STRAIN-A/FEMALE, Target Tissue: Type of Lesion: LUNG: ADENOMA, Dose [Carcinogen]: 10 UMOL IN 0.1 ML SALINE ONCE): 100%, 100%, 0%, not significant
- tumour outcome (control, treated, inhibition, significance) (1 UMOL/G DIET FOR DURATION OF STUDY BEGINNING 1 WK PRIOR TO CARCINOGEN TREATMENT (STUDY DURATION: 112 WK), Route [Inhibitor]: ORAL, Species: RAT, Strain/Sex: F344/MALE, Target Tissue: Type of Lesion: HEMATOPOIETIC SYSTEM: LEUKEMIA OR LYMPHOMA, Dose [Carcinogen]: 2 PPM IN DRINKING WATER FOR 111 WK): 26/56 (46%), 11/57 (19%), 59%, p=0.002
- tumour outcome (control, treated, inhibition, significance) (1 UMOL/G DIET FOR DURATION OF STUDY BEGINNING 1 WK PRIOR TO CARCINOGEN TREATMENT (STUDY DURATION: 112 WK), Route [Inhibitor]: ORAL, Species: RAT, Strain/Sex: F344/MALE, Target Tissue: Type of Lesion: LIVER: ADENOMA, Dose [Carcinogen]: 2 PPM IN DRINKING WATER FOR 111 WK): 2/55 (4%), 4/50 (8%), -100%, not significant
- tumour outcome (control, treated, inhibition, significance) (1 UMOL/G DIET FOR DURATION OF STUDY BEGINNING 1 WK PRIOR TO CARCINOGEN TREATMENT (STUDY DURATION: 112 WK), Route [Inhibitor]: ORAL, Species: RAT, Strain/Sex: F344/MALE, Target Tissue: Type of Lesion: LIVER: CARCINOMA, Dose [Carcinogen]: 2 PPM IN DRINKING WATER FOR 111 WK): 3/55 (5%), 1/50 (2%), 60%, not significant
- tumour outcome (control, treated, inhibition, significance) (1 UMOL/G DIET FOR DURATION OF STUDY BEGINNING 1 WK PRIOR TO CARCINOGEN TREATMENT (STUDY DURATION: 112 WK), Route [Inhibitor]: ORAL, Species: RAT, Strain/Sex: F344/MALE, Target Tissue: Type of Lesion: LUNG: ADENOCARCINOMA, Dose [Carcinogen]: 2 PPM IN DRINKING WATER FOR 111 WK): 23/56 (41%), 9/57 (16%), 61%, p=0.003
- tumour outcome (control, treated, inhibition, significance) (1 UMOL/G DIET FOR DURATION OF STUDY BEGINNING 1 WK PRIOR TO CARCINOGEN TREATMENT (STUDY DURATION: 112 WK), Route [Inhibitor]: ORAL, Species: RAT, Strain/Sex: F344/MALE, Target Tissue: Type of Lesion: LUNG: ADENOMA, Dose [Carcinogen]: 2 PPM IN DRINKING WATER FOR 111 WK): 16/56 (29%), 6/57 (11%), 62%, p=0.015
- tumour outcome (control, treated, inhibition, significance) (1 UMOL/G DIET FOR DURATION OF STUDY BEGINNING 1 WK PRIOR TO CARCINOGEN TREATMENT (STUDY DURATION: 112 WK), Route [Inhibitor]: ORAL, Species: RAT, Strain/Sex: F344/MALE, Target Tissue: Type of Lesion: NASAL CAVITY: PAPILLOMA OR CARCINOMA, Dose [Carcinogen]: 2 PPM IN DRINKING WATER FOR 111 WK): 1/48 (2%), 2/45 (4%), -100%, not significant
